The assay deals with BDF1 mice, P388 leukemia ip, median survival T/C. The assay can be described thus: NCI In Vivo Anticancer Drug Screen. Data for tumor model P388 Leukemia (intraperitoneal) in B6D2F1 (BDF1) mice. The conditions noted are these: endpoint: median survival time, higher = longer survival. Summed up: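 Mice carrying the transplantable tumour receive compound or vehicle. Survival is followed in each arm, and the treated measure is divided by the vehicle measure.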

The mark [1] stands for this setting: dose: 50.0 mg/kg/injection, schedule: Q01DX009 (ip), vehicle: saline with Tween-80.
[2] abbreviates: dose: 100.0 mg/kg/injection, schedule: Q01DX009 (ip), vehicle: saline with Tween-80.
[3] abbreviates: dose: 100.0 mg/kg/injection, schedule: Q04DX003 (ip), vehicle: saline with Tween-80.
Setting [4] is: dose: 200.0 mg/kg/injection, schedule: Q01DX009 (ip), vehicle: saline with Tween-80.
The mark [5] stands for this setting: dose: 200.0 mg/kg/injection, schedule: Q04DX003 (ip), vehicle: saline with Tween-80.
Setting [6] is: dose: 400.0 mg/kg/injection, schedule: Q04DX003 (ip), vehicle: saline with Tween-80.

Several values for one entry are separate records, joined by “and”; a condition that tells them apart may be missing. Identical values can stand only once. Inconclusive results and toxic doses are left out.

As for `Cc1c[n+]2c3ccccc3c3ccccc3c2s1`, the T/C is, setting by setting: (dose: 1.5 mg/kg/injection, schedule: Q01DX009 (ip), vehicle: Klucel (hydroxypropylcellulose) (HPC)) 95 % of control; (dose: 2.5 mg/kg/injection, schedule: Q01DX009 (ip), vehicle: Klucel (hydroxypropylcellulose) (HPC)) 100 % of control; (dose: 3.0 mg/kg/injection, schedule: Q01DX009 (ip), vehicle: Klucel (hydroxypropylcellulose) (HPC)) 90 % of control; (dose: 5.0 mg/kg/injection, schedule: Q01DX009 (ip), vehicle: Klucel (hydroxypropylcellulose) (HPC)) 122 % of control; (dose: 6.0 mg/kg/injection, schedule: Q01DX009 (ip), vehicle: Klucel (hydroxypropylcellulose) (HPC)) 86 % of control; (dose: 10.0 mg/kg/injection, schedule: Q01DX009 (ip), vehicle: Klucel (hydroxypropylcellulose) (HPC)) 118 % of control. The T/C was 118 % of control (dose: 10.0 mg/kg/injection, schedule: Q04DX003 (ip), vehicle: Klucel (hydroxypropylcellulose) (HPC)); 95 % of control (dose: 20.0 mg/kg/injection, schedule: Q04DX003 (ip), vehicle: Klucel (hydroxypropylcellulose) (HPC)); 90 % of control (dose: 80.0 mg/kg/injection, schedule: Q04DX003 (ip), vehicle: Klucel (hydroxypropylcellulose) (HPC)); 90 % of control (dose: 200.0 mg/kg/injection, schedule: Q04DX003 (ip), vehicle: Klucel (hydroxypropylcellulose) (HPC)).
As for `CC(C)(Br)C(=O)c1ccc(Cl)s1`, the T/C under setting [1] was 101 % of control; the T/C under setting [2] is 111 % of control; the T/C under setting [3] was 109 % of control; the T/C under setting [4] was 119 % of control; the T/C under setting [5] is 115 % of control; the T/C (dose: 400.0 mg/kg/injection, schedule: Q01DX009 (ip), vehicle: saline with Tween-80) is 119 % of control. The T/C under setting [6] is 107 % of control.
On to `Cn1c(CS)nc2ccccc21`, for which the T/C was 104 % of control (dose: 12.5 mg/kg/injection, schedule: Q04DX003 (ip), vehicle: Klucel (hydroxypropylcellulose) (HPC)); 102 % of control (dose: 25.0 mg/kg/injection, schedule: Q04DX003 (ip), vehicle: Klucel (hydroxypropylcellulose) (HPC)); 105 % of control (dose: 50.0 mg/kg/injection, schedule: Q04DX003 (ip), vehicle: Klucel (hydroxypropylcellulose) (HPC)); 96 % of control (dose: 100.0 mg/kg/injection, schedule: Q04DX003 (ip), vehicle: Klucel (hydroxypropylcellulose) (HPC)).
On to `N#CCc1cnc2nc(N)nc(N)c2n1`, for which the T/C was 102 % of control (dose: 3.13 mg/kg/injection, schedule: Q01DX009 (ip), vehicle: other); 98 % of control (dose: 6.25 mg/kg/injection, schedule: Q01DX009 (ip), vehicle: other); 107 % of control (dose: 12.5 mg/kg/injection, schedule: Q01DX009 (ip), vehicle: other); 107 % of control (dose: 25.0 mg/kg/injection, schedule: Q01DX009 (ip), vehicle: other).
In the case of `CCC(C(O)c1cccs1)C(O)(C(F)(F)F)C(F)(F)F` (configuration not stated), the T/C is 95 % of control under setting [3] and 100 % of control under setting [5].
For the compound `[NH-]C(CO)C(=O)O.[NH-]C(CO)C(=O)O.[Pt+2]` (configuration not stated), the T/C runs as follows: (dose: 12.5 mg/kg/injection, schedule: Q01DX009 (ip), vehicle: distilled water + Tween-80) 115 % of control; (dose: 25.0 mg/kg/injection, schedule: Q01DX009 (ip), vehicle: distilled water + Tween-80) 117 % of control; (dose: 50.0 mg/kg/injection, schedule: Q01DX009 (ip), vehicle: distilled water + Tween-80) 115 % of control; (dose: 100.0 mg/kg/injection, schedule: Q01DX009 (ip), vehicle: distilled water + Tween-80) 115 % of control.
Regarding `O=[N+]([O-])c1ccc(S(=O)c2ccccc2)c2c1no[n+]2[O-]` (configuration not stated), the T/C (dose: 22.5 mg/kg/injection, schedule: Q01DX009 (ip), vehicle: saline with Tween-80) was 92 % of control and the T/C (dose: 45.0 mg/kg/injection, schedule: Q01DX009 (ip), vehicle: saline with Tween-80) is 93 % of control.
Take `CC1CC(C)(C)[N+](C)=C(CC(O)(c2ccccc2)c2ccccc2)O1` (configuration not stated): the T/C (dose: 6.25 mg/kg/injection, schedule: Q04DX003 (ip), vehicle: saline sonified) is 109 % of control; the T/C (dose: 12.5 mg/kg/injection, schedule: Q04DX003 (ip), vehicle: saline sonified) is 90 % of control; the T/C (dose: 25.0 mg/kg/injection, schedule: Q04DX003 (ip), vehicle: saline sonified) was 90 % of control.
Take `CC(C)C(Br)C(=O)NC(Cc1ccccc1)C(=O)O` (configuration not stated): the T/C reads like this: under setting [3], 109 % of control; under setting [5], 100 % of control; under setting [6], 95 % of control.
As for `COC1=C(C)C(=O)c2c(c(COC(N)=O)c3n2CC2C3N2C)C1=O` (configuration not stated), the T/C (dose: 2.0 mg/kg/injection, schedule: Q01DX009 (ip), vehicle: saline sonified) is 120 % of control.
Consider `CN=C(N)c1ccc(N=C(N)c2ccc(N=C(N)c3ccc(N=C(O)c4cccc(C(O)=Nc5ccc(C(N)=Nc6ccc(C(N)=Nc7ccc(C(N)=NC)cc7)cc6)cc5)c4)cc3)cc2)cc1`, for which the T/C was 154 % of control (dose: 4.0 mg/kg/injection, schedule: Q01DX009 (ip), vehicle: saline with Tween-80); 123 % of control (dose: 4.0 mg/kg/injection, schedule: Q04DX003 (ip), vehicle: saline with Tween-80); 150 % of control (dose: 6.0 mg/kg/injection, schedule: Q04DX003 (ip), vehicle: saline with Tween-80); 177 % of control (dose: 8.0 mg/kg/injection, schedule: Q01DX009 (ip), vehicle: saline with Tween-80); 168 % of control (dose: 9.0 mg/kg/injection, schedule: Q04DX003 (ip), vehicle: saline with Tween-80); 200 % of control (dose: 11.0 mg/kg/injection, schedule: Q01DX009 (ip), vehicle: saline with Tween-80). The T/C runs as follows: (dose: 12.0 mg/kg/injection, schedule: Q01DX009 (ip), vehicle: saline with Tween-80) 166 % of control; (dose: 14.0 mg/kg/injection, schedule: Q04DX003 (ip), vehicle: saline with Tween-80) 168 % of control; (dose: 16.0 mg/kg/injection, schedule: Q01DX009 (ip), vehicle: saline with Tween-80) 181 % of control and 183 % of control; (dose: 16.5 mg/kg/injection, schedule: Q01DX009 (ip), vehicle: saline with Tween-80) 227 % of control; (dose: 22.0 mg/kg/injection, schedule: Q04DX003 (ip), vehicle: saline with Tween-80) 159 % of control and 177 % of control and 204 % of control; (dose: 33.0 mg/kg/injection, schedule: Q04DX003 (ip), vehicle: saline with Tween-80) 250 % of control and 177 % of control. Further, the T/C by setting is: (dose: 37.5 mg/kg/injection, schedule: Q01DX009 (ip), vehicle: saline with Tween-80) 233 % of control and 194 % of control; (dose: 50.0 mg/kg/injection, schedule: Q04DX003 (ip), vehicle: saline with Tween-80) 250 % of control and 190 % of control; (dose: 75.0 mg/kg/injection, schedule: Q04DX003 (ip), vehicle: saline with Tween-80) 231 % of control and 200 % of control.
Take `CCC(C(N)C(=O)O)C(F)(F)F` (configuration not stated): the T/C is 103 % of control (dose: 50.0 mg/kg/injection, schedule: Q01DX005 (ip), vehicle: saline); 108 % of control (dose: 100.0 mg/kg/injection, schedule: Q01DX005 (ip), vehicle: saline); 103 % of control (dose: 200.0 mg/kg/injection, schedule: Q01DX005 (ip), vehicle: saline).
In the case of `O=C1c2ccccc2C(=O)N1CNc1cccc(NCN2C(=O)c3ccccc3C2=O)c1`, the T/C is 100 % of control (dose: 100.0 mg/kg/injection, schedule: Q01DX001 (ip), vehicle: saline); 104 % of control (dose: 100.0 mg/kg/injection, schedule: Q04DX003 (ip), vehicle: saline); 100 % of control (dose: 200.0 mg/kg/injection, schedule: Q01DX001 (ip), vehicle: saline); 104 % of control (dose: 200.0 mg/kg/injection, schedule: Q04DX003 (ip), vehicle: saline); 90 % of control (dose: 400.0 mg/kg/injection, schedule: Q01DX001 (ip), vehicle: saline); 100 % of control (dose: 400.0 mg/kg/injection, schedule: Q04DX003 (ip), vehicle: saline).
Consider `O=C1CSC(=S)N1`, for which the T/C by setting is: under setting [1], 122 % of control; under setting [2], 122 % of control; under setting [4], 104 % of control.
On to `C#CC(=O)C1OC2OC(C)(C)OC2C2OC(C)(C)OC12` (configuration not stated), for which the T/C runs as follows: (dose: 3.12 mg/kg/injection, schedule: Q01DX005 (ip), vehicle: saline with Tween-80) 100 % of control; (dose: 6.25 mg/kg/injection, schedule: Q01DX005 (ip), vehicle: saline with Tween-80) 107 % of control; (dose: 12.5 mg/kg/injection, schedule: Q01DX005 (ip), vehicle: saline with Tween-80) 107 % of control.
On to `Nc1nc(N)c2cc(Sc3ccc4ccccc4c3)ccc2n1`, for which the T/C under setting [1] is 113 % of control and the T/C under setting [2] is 123 % of control.

The record behind these values is PubChem BioAssay AID328 (DTP/NCI, 2004).
